{"source": "patent US20240325353A1", "about": "“COMPOUND FOR TREATMENT OF COGNITIVE DISORDERS” (Syndesi Therapeutics SA, priority 2021, published 2024)", "system": "brain activity (BOLD signal)", "assay": "pharmaco-MRI (BOLD) neuroimaging study in conscious rats", "assay_type": "in vivo, rat", "settings": "for median number of positive voxels (positive BOLD volume of activation): 20-30 min post injection", "experimental": "Test Substance, Reference Substance(s), and Vehicle: the compound of example 1 test substance for dose-dependent change in BOLD signal was provided by Syndesi along with the formula for the vehicle.\nSubjects: Forty-eight male Sprague Dawley rats weighing ca 275-300 g were obtained from Charles River Laboratories (Wilmington, MA, USA). Rat were maintained on a 12:12 hour light:dark cycle with a lights on at 0700 hours and allowed access to food and water ad libitum. All rats were acquired and cared for in accordance with the guidelines published in the Guide for the Care and Use of Laboratory Animals (National Institutes of Health Publications No. 85-23, Revised 1985) and adhered to the National Institutes of Health and the American Association for Laboratory Animal Science guidelines.\nAcclimation: To reduce the stress associated with head restraint, rats were acclimated to the restraining system (head holder and body tube) one week prior to their actual imaging session. The design of the restraining system (Animal Imaging Research, Holden MA, USA) included a padded head support obviating the need for ear bars helping to reduce animal discomfort while minimizing motion artifact. These acclimation sessions were run each day for 4-5 consecutive days. Rats were briefly anesthetized with 2-3% isoflurane while being secured into the head holder. The forepaws were secured with tape. When fully conscious, the imaging system is placed into a black opaque box “mock scanner” for 30 min with a tape-recording of the MRI pulse sequence to simulate the bore of the magnet and the imaging protocol. A significant decline in respiration, heart rate, motor movements, and plasma corticosterone has been measured when the first and last acclimation periods are compared (King et al., 2005). The reduction in autonomic and somatic measures of arousal and stress improve the signal resolution and quality of the images.\nImage Acquisition: Animals were scanned at 300 MHz using a quadrature transmit/receive volume coil built into the rat head holder and restraining system for awake animal imaging (Animal Imaging Research, Holden, MA, USA). The design of the coil provided complete coverage of the brain from olfactory bulbs to brain stem with excellent B1 field homogeneity. Experiments were conducted using a Bruker Biospec 7.0 T/20-cm USR horizontal magnet (Bruker, Billerica, MA, USA) and a 20-G/cm magnetic field gradient insert (ID=12 cm) capable of a 120-μs rise time. At the beginning of each imaging session, a high-resolution anatomical data set was collected using the RARE pulse sequence [22 slice; 1.0 mm; field of view (FOV) 3.0 cm; matrix size 256×256; repetition time (TR) 2.5 s; echo time (TE) 12 ms; NEX 2; 3 min acquisition time]. Functional images were acquired using a multi-slice half-Fourier acquisition single-shot turbo spin echo (HASTE) pulse sequence. Bruker Paravision automatically finds the basic frequency, shims, power requirements for 90° and 180° pulses and sets the receiver gain. A single scanning session acquired 22 slices, 1.0 mm thick, every 6.0 s (TR), using an effective TE of 48 ms, FOV 3.0 cm, matrix size 96×96, NEX 1, and repeated 450 times for a total scanning time of 45 min. The in-plane pixel resolution was 312 μm2.\nData Processing: Data are coregistered to a mean functional image using SPM8's coregistrational code with the following parameters: Quality: 0.97, Smoothing: 0.35 mm, Separation: 0.5 mm. Gaussian smoothing was performed with a FWHM of 0.8 mm. Images were aligned and registered to the 3D rat brain atlas, segmented and labeled with 171 discrete anatomical regions. The alignment process was facilitated by an interactive graphic user interface. The registration process involved translation, rotation and scaling independently and in all three dimensions. Matrices that transformed each subject's anatomy were used to embed each slice within the atlas. […]"}
{"smiles": "O=C1C[C@H](c2cc(F)c(F)c(F)c2)CN1Cn1ncnc1Cl", "note": "[compound of example 1, (4R)-1-[(5-chloro-1H-1,2,4-triazol-1-yl)methyl]-4-(3,4,5-trifluorophenyl)pyrrolidin-2-one]", "values": [{"measurement": "median number of positive voxels (positive BOLD volume of activation)", "setting": "lateral posterior thalamic nucleus, 0.1 mg/kg i.p.", "result": 11}, {"measurement": "median number of positive voxels (positive BOLD volume of activation)", "setting": "lateral posterior thalamic nucleus, 0.3 mg/kg i.p.", "result": 3}, {"measurement": "median number of positive voxels (positive BOLD volume of activation)", "setting": "lateral posterior thalamic nucleus, 1.0 mg/kg i.p.", "result": 0}, {"measurement": "median number of positive voxels (positive BOLD volume of activation)", "setting": "lateral preoptic area, 0.1 mg/kg i.p.", "result": 12}, {"measurement": "median number of positive voxels (positive BOLD volume of activation)", "setting": "lateral preoptic area, 0.3 mg/kg i.p.", "result": 3}, {"measurement": "median number of positive voxels (positive BOLD volume of activation)", "setting": "lateral preoptic area, 1.0 mg/kg i.p.", "result": 0}, {"measurement": "median number of positive voxels (positive BOLD volume of activation)", "setting": "lateral septal nucleus, 0.1 mg/kg i.p.", "result": 34}, {"measurement": "median number of positive voxels (positive BOLD volume of activation)", "setting": "lateral septal nucleus, 0.3 mg/kg i.p.", "result": 35}, {"measurement": "median number of positive voxels (positive BOLD volume of activation)", "setting": "lateral septal nucleus, 1.0 mg/kg i.p.", "result": 4}, {"measurement": "median number of positive voxels (positive BOLD volume of activation)", "setting": "paraventricular nucleus (first entry, P 0.003), 0.1 mg/kg i.p.", "result": 4}, {"measurement": "median number of positive voxels (positive BOLD volume of activation)", "setting": "paraventricular nucleus (first entry, P 0.003), 0.3 mg/kg i.p.", "result": 5}, {"measurement": "median number of positive voxels (positive BOLD volume of activation)", "setting": "paraventricular nucleus (first entry, P 0.003), 1.0 mg/kg i.p.", "result": 0}, {"measurement": "median number of positive voxels (positive BOLD volume of activation)", "setting": "prelimbic ctx, 0.1 mg/kg i.p.", "result": 50}, {"measurement": "median number of positive voxels (positive BOLD volume of activation)", "setting": "prelimbic ctx, 0.3 mg/kg i.p.", "result": 32}, {"measurement": "median number of positive voxels (positive BOLD volume of activation)", "setting": "prelimbic ctx, 1.0 mg/kg i.p.", "result": 4}, {"measurement": "median number of positive voxels (positive BOLD volume of activation)", "setting": "reticular nucleus midbrain, 0.1 mg/kg i.p.", "result": 19}, {"measurement": "median number of positive voxels (positive BOLD volume of activation)", "setting": "reticular nucleus midbrain, 0.3 mg/kg i.p.", "result": 18}, {"measurement": "median number of positive voxels (positive BOLD volume of activation)", "setting": "reticular nucleus midbrain, 1.0 mg/kg i.p.", "result": 1}, {"measurement": "median number of positive voxels (positive BOLD volume of activation)", "setting": "retrosplenial caudal ctx, 0.1 mg/kg i.p.", "result": 43}, {"measurement": "median number of positive voxels (positive BOLD volume of activation)", "setting": "retrosplenial caudal ctx, 0.3 mg/kg i.p.", "result": 27}, {"measurement": "median number of positive voxels (positive BOLD volume of activation)", "setting": "retrosplenial caudal ctx, 1.0 mg/kg i.p.", "result": 0}, {"measurement": "median number of positive voxels (positive BOLD volume of activation)", "setting": "subiculum dorsal, 0.1 mg/kg i.p.", "result": 13}, {"measurement": "median number of positive voxels (positive BOLD volume of activation)", "setting": "subiculum dorsal, 0.3 mg/kg i.p.", "result": 12}, {"measurement": "median number of positive voxels (positive BOLD volume of activation)", "setting": "subiculum dorsal, 1.0 mg/kg i.p.", "result": 0}, {"measurement": "median number of positive voxels (positive BOLD volume of activation)", "setting": "substantia nigra reticularis, 0.1 mg/kg i.p.", "result": 19}, {"measurement": "median number of positive voxels (positive BOLD volume of activation)", "setting": "substantia nigra reticularis, 0.3 mg/kg i.p.", "result": 22}, {"measurement": "median number of positive voxels (positive BOLD volume of activation)", "setting": "substantia nigra reticularis, 1.0 mg/kg i.p.", "result": 2}, {"measurement": "median number of positive voxels (positive BOLD volume of activation)", "setting": "triangular septal nucleus, 0.1 mg/kg i.p.", "result": 4}, {"measurement": "median number of positive voxels (positive BOLD volume of activation)", "setting": "triangular septal nucleus, 0.3 mg/kg i.p.", "result": 1}, {"measurement": "median number of positive voxels (positive BOLD volume of activation)", "setting": "triangular septal nucleus, 1.0 mg/kg i.p.", "result": 0}, {"measurement": "brain areas significantly affected by the four treatments", "setting": "vehicle, 0.1, 0.3, 1.0 mg/kg, of 171 brain regions", "result": "71/171"}, {"measurement": "median number of positive voxels (positive BOLD volume of activation)", "setting": "ventral lateral striatum, 0.1 mg/kg i.p.", "result": 82}, {"measurement": "median number of positive voxels (positive BOLD volume of activation)", "setting": "ventral lateral striatum, 0.3 mg/kg i.p.", "result": 1}, {"measurement": "median number of positive voxels (positive BOLD volume of activation)", "setting": "ventral lateral striatum, 1.0 mg/kg i.p.", "result": 0}, {"measurement": "median number of positive voxels (positive BOLD volume of activation)", "setting": "ventral medial striatum, 0.1 mg/kg i.p.", "result": 47}, {"measurement": "median number of positive voxels (positive BOLD volume of activation)", "setting": "ventral medial striatum, 0.3 mg/kg i.p.", "result": 18}, {"measurement": "median number of positive voxels (positive BOLD volume of activation)", "setting": "ventral medial striatum, 1.0 mg/kg i.p.", "result": 0}, {"measurement": "median number of positive voxels (positive BOLD volume of activation)", "setting": "ventral orbital ctx, 0.1 mg/kg i.p.", "result": 19}, {"measurement": "median number of positive voxels (positive BOLD volume of activation)", "setting": "ventral orbital ctx, 0.3 mg/kg i.p.", "result": 4}, {"measurement": "median number of positive voxels (positive BOLD volume of activation)", "setting": "ventral orbital ctx, 1.0 mg/kg i.p.", "result": 1}, {"measurement": "median number of positive voxels (positive BOLD volume of activation)", "setting": "ventral subiculum, 0.1 mg/kg i.p.", "result": 26}, {"measurement": "median number of positive voxels (positive BOLD volume of activation)", "setting": "ventral subiculum, 0.3 mg/kg i.p.", "result": 25}, {"measurement": "median number of positive voxels (positive BOLD volume of activation)", "setting": "ventral subiculum, 1.0 mg/kg i.p.", "result": 3}, {"measurement": "median number of positive voxels (positive BOLD volume of activation)", "setting": "ventral tegmental area, 0.1 mg/kg i.p.", "result": 8}, {"measurement": "median number of positive voxels (positive BOLD volume of activation)", "setting": "ventral tegmental area, 0.3 mg/kg i.p.", "result": 5}, {"measurement": "median number of positive voxels (positive BOLD volume of activation)", "setting": "ventral tegmental area, 1.0 mg/kg i.p.", "result": 0}, {"measurement": "median number of positive voxels (positive BOLD volume of activation)", "setting": "visual 1 ctx, 0.1 mg/kg i.p.", "result": 27}, {"measurement": "median number of positive voxels (positive BOLD volume of activation)", "setting": "visual 1 ctx, 0.3 mg/kg i.p.", "result": 21}, {"measurement": "median number of positive voxels (positive BOLD volume of activation)", "setting": "visual 1 ctx, 1.0 mg/kg i.p.", "result": 0}, {"measurement": "median number of positive voxels (positive BOLD volume of activation)", "setting": "zona incerta, 0.1 mg/kg i.p.", "result": 9}, {"measurement": "median number of positive voxels (positive BOLD volume of activation)", "setting": "zona incerta, 0.3 mg/kg i.p.", "result": 3}, {"measurement": "median number of positive voxels (positive BOLD volume of activation)", "setting": "zona incerta, 1.0 mg/kg i.p.", "result": 0}]}
